The record followed here is BindingDB's records for doi:10.1021/acsmedchemlett.8b00220 (Merck, 2018).

Structures are written as SMILES. A value given as a limit tells only on which side of the number the result lay.

Data set [1] in a line: Inhibition of CYP3A4 (unknown origin) co-incubated with substrate.
Data set [2] can be described thus: Inhibition of CYP3A4 (unknown origin) preincubated followed by substrate addition.

In the case of `CS[C@@]1(C(=O)Nc2ccc3[nH]nc(-c4ccc(F)cc4)c3c2)CCN(CC(=O)N2CC=C(c3ccc(-c4ncccn4)cc3)CC2)C1` [US8546404, 613], the IC50 in data set [1] was greater than 30 µM; in data set [2], 2 µM.
